These results are taken from PubChem BioAssay (NCI).

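Exposure lasted 48 hours, with cells grown in 96-well plates and compounds tested at five concentrations. GI50 marks 50% less growth. At the TGI there is no net growth.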

The subject of one assay is SNB-78 CNS. The experiment in a line: growth of human tumour cells (NCI), 48 h.
Compound `COc1ccc2ccc3c(c2c1)CN1CCc2cc(OC)c(OC)cc2C1C3` (configuration not stated) returned a TGI greater than 100 µM.

The compound `OCCC1(O)CCC(O)CC1` (configuration not stated) registered a TGI greater than 100 µM.

Consider `CC(C)CC(=O)[O-].CC(C)CC(=O)[O-].N.N.N.N.[Co+3].[O-][Cl+3]([O-])([O-])[O-]`, for which the GI50 is greater than 100 µM and the TGI was greater than 100 µM.

Compound `COc1cc(C2c3cc4c(cc3C(NCC(O)CO)C3COC(=O)[C@H]23)OCO4)cc(OC)c1OC` (some centres not stated) came in with a TGI greater than 100 µM.

`CCCCN(CCCC)C(=O)C(=O)C(C#N)c1ccc(C)cc1` (configuration not stated) had a TGI greater than 100 µM.

In turn, `Cc1ccc(S(=O)(=O)C(CC(=O)N2CCCC2)C(=O)c2ccccc2)cc1` (configuration not stated) returned a TGI greater than 100 µM.

Take `CC1(C)CC(/C=C2/OC(=O)c3ccccc32)=C(C#N)C(=O)O1`: the TGI was greater than 100 µM.

On to `Cc1nc2c(nc1Cl)nc(Oc1ccc(Cl)cc1)c1ccccc12`, for which the TGI was greater than 100 µM.

For the compound `CC(=O)Nc1ccccc1Sc1ccccc1`, the TGI was greater than 100 µM.

`CC1OC(n2cc(F)c(=O)[nH]c2=O)CCC1O` (configuration not stated): the TGI was greater than 100 µM.

`COC(=O)C[C@H]1CCC2(OCCO2)[C@]1(C)C(=O)OC`: the TGI is greater than 100 µM.

`CCCCCCCCCC[C@@H](O)[C@@H]1CC[C@H]([C@H]2CC[C@@H]([C@@H](O)CCCCCCCCCC[C@H]3CC(CC(C)=O)C(=O)O3)O2)O1` (some centres not stated) registered a TGI of 37.2 µM.

`CCOc1ccc2c(c1)[n+]([O-])c(S(=O)(=O)c1ccc(C)cc1)c(N)[n+]2[O-]` gave a TGI greater than 100 µM.

In turn, `CC12CC[C@@H](C(C)(C)O)C1[C@@H](O)CC1(C)C2CCC2[C@@]3(C)CC[C@H](O)C(C)(C)C3C(O)C[C@]21C` (some centres not stated) registered a TGI of 38.8 µM.

`CCOC(=O)NC(=O)c1cn(C2OC(COC(=O)CCCCCCCCC(=O)OCC3OC(n4cc(C(=O)NC(=O)OCC)c(=O)[nH]c4=O)C(O)C3O)C(O)C2O)c(=O)[nH]c1=O` (configuration not stated) yielded a TGI greater than 100 µM.

`Cc1ccc(C)c(NC(=O)CC/C(=N\NC(=O)C(=O)NN)C(C)C(=O)c2ccc(O)cc2)c1` (configuration not stated) came in with a TGI greater than 100 µM.

For the compound `N=C1CSC2=NC3=C(CCC/C3=C\c3ccccc3)C(c3ccccc3)N12` (configuration not stated), the TGI came out at 23.6 µM.

As for `COc1ccc(CNc2cc(OC)c(OC)c(OC)c2)cc1`, the TGI is 32.9 µM.

Turning to `COc1ccccc1C1C(C(=O)Nc2ccccc2)=C(C)NC(C)=C1C(=O)Nc1ccccc1`, the TGI was greater than 100 µM.

On to `CCCCCCCCCCCC(=O)CC(=O)c1c(O)cccc1O`, for which the TGI stood at 41 µM.

As to `CN(C(=O)C12C3C4C1C1C2C3C41C(=O)C(C)(C)C)C(C)(C)C` (configuration not stated), the TGI is greater than 100 µM.

For `Cc1cc2c(cc1C)[n+](=O)c(C(=O)CC(=O)C(=O)Nc1c(C(C)C)cccc1C(C)C)c(C)n2[O-]`, the TGI was greater than 100 µM.

Consider `COc1ccc2cc1Oc1ccc(cc1)CC1c3cc(c(OC)cc3CCN1C)Oc1c3c(cc4c1C(C2)N(C)CC4)OCO3` (configuration not stated), for which the TGI came out at 30.7 µM.

Take `COc1ccc(OC)c(NC(=O)C(=O)C(C(C)=O)c2nc3ccc(Cl)cc3[nH]c2=O)c1` (configuration not stated): the TGI is greater than 50 µM.

`N#CC(C(=N/O)/C(=N/O)C(C#N)c1ccc(Cl)cc1)c1ccc(Cl)cc1` (configuration not stated): the TGI is greater than 100 µM.

The next assay concerns HOP-18 NSCLC. Description: growth of human tumour cells (NCI), 48 h.
For `COc1ccc2ccc3c(c2c1)CN1CCc2cc(OC)c(OC)cc2C1C3` (configuration not stated), the TGI was greater than 100 µM.

Compound `OCCC1(O)CCC(O)CC1` (configuration not stated) displayed a TGI greater than 100 µM.

`CCCCNC1=C(C(=O)OCC)C(=O)CO1` showed a TGI greater than 100 µM.

`COc1cc(C2c3cc4c(cc3C(NCC(O)CO)C3COC(=O)[C@H]23)OCO4)cc(OC)c1OC` (some centres not stated) displayed a TGI greater than 100 µM.

In turn, `COC(=O)CC(=O)C[P+](c1ccccc1)(c1ccccc1)c1ccccc1` displayed a TGI greater than 218 µM.

Consider `CCCCN(CCCC)C(=O)C(=O)C(C#N)c1ccc(C)cc1` (configuration not stated), for which the TGI was greater than 100 µM.

With `Cc1ccc(S(=O)(=O)C(CC(=O)N2CCCC2)C(=O)c2ccccc2)cc1` (configuration not stated), the TGI was greater than 100 µM.

As to `CC(=O)Nc1ccccc1Sc1ccccc1`, the TGI is greater than 100 µM.

Turning to `CC1OC(n2cc(F)c(=O)[nH]c2=O)CCC1O` (configuration not stated), the TGI is greater than 100 µM.

Turning to `CCOc1ccc2c(c1)[n+]([O-])c(S(=O)(=O)c1ccc(C)cc1)c(N)[n+]2[O-]`, the TGI was greater than 100 µM.

The compound `CC12CC[C@@H](C(C)(C)O)C1[C@@H](O)CC1(C)C2CCC2[C@@]3(C)CC[C@H](O)C(C)(C)C3C(O)C[C@]21C` (some centres not stated) displayed a TGI of 41.1 µM.

For the compound `CCOC(=O)NC(=O)c1cn(C2OC(COC(=O)CCCCCCCCC(=O)OCC3OC(n4cc(C(=O)NC(=O)OCC)c(=O)[nH]c4=O)C(O)C3O)C(O)C2O)c(=O)[nH]c1=O` (configuration not stated), the TGI was greater than 100 µM.

Turning to `Cc1ccc(C)c(NC(=O)CC/C(=N\NC(=O)C(=O)NN)C(C)C(=O)c2ccc(O)cc2)c1` (configuration not stated), the TGI is greater than 100 µM.

`COc1ccc(CNc2cc(OC)c(OC)c(OC)c2)cc1`: the TGI is greater than 94.6 µM.

In turn, `COc1ccccc1C1C(C(=O)Nc2ccccc2)=C(C)NC(C)=C1C(=O)Nc1ccccc1` registered a TGI greater than 100 µM.

Compound `CCCCCCCCCCCC(=O)CC(=O)c1c(O)cccc1O` gave a TGI of 36.7 µM.

As for `Cc1cc2c(cc1C)[n+](=O)c(C(=O)CC(=O)C(=O)Nc1c(C(C)C)cccc1C(C)C)c(C)n2[O-]`, the TGI is greater than 100 µM.

`COc1ccc(OC)c(NC(=O)C(=O)C(C(C)=O)c2nc3ccc(Cl)cc3[nH]c2=O)c1` (configuration not stated) returned a TGI greater than 50 µM.

As for `N#CC(C(=N/O)/C(=N/O)C(C#N)c1ccc(Cl)cc1)c1ccc(Cl)cc1` (configuration not stated), the TGI is greater than 100 µM.

For the next assay, the system named is LXFL 529 NSCLC. The experiment in a line: growth of human tumour cells (NCI), 48 h.
As for `CC1(Cl)C(=O)NC(=O)N(C2CC(N=[N+]=[N-])C(CO)O2)C1N=[N+]=[N-]` (configuration not stated), the TGI was greater than 100 µM.

Compound `COc1ccc2ccc3c(c2c1)CN1CCc2cc(OC)c(OC)cc2C1C3` (configuration not stated) came in with a TGI greater than 100 µM.

Compound `OCCC1(O)CCC(O)CC1` (configuration not stated) yielded a TGI greater than 100 µM.

Consider `CCCCNC1=C(C(=O)OCC)C(=O)CO1`, for which the TGI is greater than 100 µM.

Consider `CC(C)CC(=O)[O-].CC(C)CC(=O)[O-].N.N.N.N.[Co+3].[O-][Cl+3]([O-])([O-])[O-]`, for which the GI50 is greater than 100 µM and the TGI was greater than 100 µM.

As for `COc1cc(C2c3cc4c(cc3C(NCC(O)CO)C3COC(=O)[C@H]23)OCO4)cc(OC)c1OC` (some centres not stated), the TGI is greater than 100 µM.
